From PMC10786919, “Design-rules for stapled peptides with in vivo activity and their application to Mdm2/X antagonists” (Nature Communications, 2024)
Values after ≈ are worked out from the molar mass of the structure shown. Positions of bridges follow the written chain, without caps; N, C: chain ends. Non-standard residues stand in square brackets, D forms with d. Residues, ends and D or L forms follow the SMILES beside them. Lys(N3) = [N-]=[N+]=NCCCC[C@H](N)C(=O)O; R8 = C=CCCCCCC[C@@](C)(N)C(=O)O; Cba = N[C@@H](CC1CCC1)C(=O)O; S5 = C=CCCC[C@](C)(N)C(=O)O; βAla = NCCC(=O)O

Legend:
[1] = Lactate dehydrogenase (LDH) release assay; assay type: cell-based; details: LDH: Cytotoxicity assay EC50
Procedure, shortened: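 Membrane damage measured as lactate dehydrogenase release (CytoTox-ONE kit) from p53-responsive β-lactamase reporter HCT116 cells plated at 8000 per well. Final DMSO 0.5%; geometric mean reported from a minimum of three biological replicates.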

[2] = Solubility assay (kinetic solubility, PBS pH 7); assay type: physicochemical; details: pH 7, PBS; for solubility kinetic: pH 7, aqueous buffer, kinetic from dmso stock, read-out: Solubility
Procedure, shortened: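 Next, measure peak areas of sample and standard. Finally, multiply their ratio by the standard concentration to obtain solubility (µM).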

Ca Ski cell line = details: 72 h
Method: (§1) The medium for CellSensor™ p53RE-bla HCT-116 cells was McCoy’s 5 A Medium (GIBCO16600-002) supplied with 10% FBS (Hyclone, SH30406.05), 100 U/100ug/ml of Pen/Strep (SolarBio, P1400) and 5 μg/ml of blasticidin (GIBCO, A11139). The medium for Ca Ski cells was RPMI1640 (Hyclone, SH3080901B) supplied with 10% FBS and 100 U/100ug/ml of Pen/Strep. All cells were kept in humidified incubators with 5% CO2 at 37 °C. Culture media was changed after one day of subculturing and cells were passed again when there was 70–80% confluence. One day before the assay, the cells were trypsinized, collected, counted and viability was determined. […] The plates were kept in humidified incubators with 5% CO2 at 37 °C overnight. Compounds were prepared as a 10 point, 3x serial dilution in 100% DMSO, starting from a top concentration of 10 mM. […] At the end of the incubation the assay plate was equilibrated at room temperature for approximately 30 minutes prior to the addition of 25 uL of CellTiter-Glo® 2.0 Reagent. The assay plate was mixed for 2 minutes on an orbital shaker to induce cell lysis. Next, the plate was incubated at room temperature for 10 minutes to stabilize the luminescent signal prior to recording the luminescence on a plate reader.

[3] = system: CellSensor p53RE-bla HCT-116 Cell Line; details: 72 h
Method: as §1

in vitro = details: Nanoclick permeability assay EC50
Procedure, shortened: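 Azido-peptide permeability was read as loss of NanoBRET signal (donor 450 nm, acceptor 610 nm) after adding NanoBret618-azide at 10 μM final.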

[4] = Experimental LogD (partition coefficient); details: for logD: not stated, Partition Coeff LogD

SMILES	EC50 [1]	solubility kinetic [2]	EC50 (Ca Ski cell line)	EC50 [3]	cell entry EC50 (in vitro)	EPSA (physchem)	logD [4]	Solubility [2]	Partition Coeff LogD [4]
CC(=O)N[C@@H](CCCCN=[N+]=[N-])C(=O)NCCC(=O)N[C@@H](CCC(=O)O)C(=O)N[C@H](C(=O)N[C@@H](Cc1ccccc1)C(=O)N[C@]1(C)CCCCCCC=CCCC[C@@](C)(C(=O)N[C@@H](CO)C(=O)N[C@@H](C)C(=O)N[C@@H](C)C(N)=O)NC(=O)[C@H](CC2CCC2)NC(=O)[C@H](CCC(N)=O)NC(=O)[C@H](C)NC(=O)[C@H](Cc2c[nH]c3ccccc23)NC(=O)[C@H](Cc2ccc(O)cc2)NC(=O)[C@H](CCC(=O)O)NC1=O)[C@@H](C)O [MP-178]	> 50 µM	169 µM (≈ 336 µg/mL)	> 49.8 µM	2.74 µM	0.292 µM	254 A^2	2.47	–	–
CC(=O)N[C@@H](CCCCN=[N+]=[N-])C(=O)NCCC(=O)N[C@@H](CC(C)C)C(=O)N[C@H](C(=O)N[C@@H](Cc1ccccc1)C(=O)N[C@]1(C)CCCCCCC=CCCC[C@@](C)(C(=O)N[C@@H](CO)C(=O)N[C@@H](C)C(=O)N[C@@H](C)C(N)=O)NC(=O)[C@H](CC2CCC2)NC(=O)[C@H](CCCNC(=N)N)NC(=O)[C@H](C)NC(=O)[C@H](Cc2c[nH]c3ccccc23)NC(=O)[C@H](Cc2ccc(O)cc2)NC(=O)[C@H](CCC(=O)O)NC1=O)[C@@H](C)O [MP-556] (Ac-[Lys(N3)][βAla]LTF[R8]EYWAR[Cba][S5]SAA-NH2; staple 6-13)	> 50 µM	–	> 49.8 µM	3.14 µM	0.149 µM	221 A^2	3.15	–	–
CC(=O)N[C@@H](CCCCN=[N+]=[N-])C(=O)NCCC(=O)N[C@@H](CC(C)C)C(=O)N[C@H](C(=O)N[C@@H](Cc1ccccc1)C(=O)N[C@]1(C)CCCCCCC=CCCC[C@@](C)(C(=O)N[C@@H](Cc2c[nH]c3ccccc23)C(=O)N[C@@H](C)C(=O)N[C@@H](C)C(N)=O)NC(=O)[C@H](CC2CCC2)NC(=O)[C@H](CCC(N)=O)NC(=O)[C@H](C)NC(=O)[C@H](Cc2c[nH]c3ccccc23)NC(=O)[C@H](Cc2ccc(O)cc2)NC(=O)[C@H](CCC(=O)O)NC1=O)[C@@H](C)O [MP-188] (Ac-[Lys(N3)][βAla]LTF[R8]EYWAQ[Cba][S5]WAA-NH2; staple 6-13)	> 50 µM	50 µM (≈ 103 µg/mL)	30.4 µM	4.79 µM	0.374 µM	249 A^2	3.33	–	–
CC(=O)N[C@@H](CCCCN=[N+]=[N-])C(=O)NCCC(=O)N[C@@H](CC(C)C)C(=O)N[C@H](C(=O)N[C@@H](Cc1ccccc1)C(=O)N[C@]1(C)CCCCCCC=CCCC[C@@](C)(C(=O)N[C@@H](CO)C(=O)N[C@@H](C)C(=O)N[C@@H](C)C(N)=O)NC(=O)[C@H](CC2CCC2)NC(=O)[C@H](CCC(=O)O)NC(=O)[C@H](C)NC(=O)[C@H](Cc2c[nH]c3ccccc23)NC(=O)[C@H](Cc2ccc(O)cc2)NC(=O)[C@H](CCC(=O)O)NC1=O)[C@@H](C)O [MP-181]	> 50 µM	179 µM (≈ 353 µg/mL)	> 49.8 µM	4.64 µM	0.304 µM	249 A^2	2.74	–	–
CC(=O)N[C@@H](CCCCN=[N+]=[N-])C(=O)NCCC(=O)N[C@@H](CC(C)C)C(=O)N[C@H](C(=O)N[C@@H](Cc1ccccc1)C(=O)N[C@]1(C)CCCCCCC=CCCC[C@@](C)(C(=O)N[C@@H](CCCNC(=N)N)C(=O)N[C@@H](C)C(=O)N[C@@H](C)C(N)=O)NC(=O)[C@H](CC2CCC2)NC(=O)[C@H](CCC(N)=O)NC(=O)[C@H](C)NC(=O)[C@H](Cc2c[nH]c3ccccc23)NC(=O)[C@H](Cc2ccc(O)cc2)NC(=O)[C@H](CCC(=O)O)NC1=O)[C@@H](C)O [MP-557] (Ac-[Lys(N3)][βAla]LTF[R8]EYWAQ[Cba][S5]RAA-NH2; staple 6-13)	> 50 µM	–	> 49.8 µM	2.04 µM	0.136 µM	219 A^2	–	Poorly Behaved	Poorly Behaved
CC(=O)N[C@@H](CCCCN=[N+]=[N-])C(=O)NCCC(=O)N[C@@H](CC(C)C)C(=O)N[C@H](C(=O)N[C@@H](Cc1ccccc1)C(=O)N[C@]1(C)CCCCCCC=CCCC[C@@](C)(C(=O)N[C@@H](CO)C(=O)N[C@@H](C)C(=O)N[C@@H](C)C(N)=O)NC(=O)[C@H](CC2CCC2)NC(=O)[C@H](CCC(N)=O)NC(=O)[C@H](CCCNC(=N)N)NC(=O)[C@H](Cc2c[nH]c3ccccc23)NC(=O)[C@H](Cc2ccc(O)cc2)NC(=O)[C@H](CCC(=O)O)NC1=O)[C@@H](C)O [MP-555] (Ac-[Lys(N3)][βAla]LTF[R8]EYWRQ[Cba][S5]SAA-NH2; staple 6-13)	> 50 µM	2 µM (≈ 4.11 µg/mL)	> 49.8 µM	6.25 µM	0.249 µM	220 A^2	2.92	–	–
CC(=O)N[C@@H](CCCCN=[N+]=[N-])C(=O)NCCC(=O)N[C@@H](Cc1c[nH]c2ccccc12)C(=O)N[C@H](C(=O)N[C@@H](Cc1ccccc1)C(=O)N[C@]1(C)CCCCCCC=CCCC[C@@](C)(C(=O)N[C@@H](CO)C(=O)N[C@@H](C)C(=O)N[C@@H](C)C(N)=O)NC(=O)[C@H](CC2CCC2)NC(=O)[C@H](CCC(N)=O)NC(=O)[C@H](C)NC(=O)[C@H](Cc2c[nH]c3ccccc23)NC(=O)[C@H](Cc2ccc(O)cc2)NC(=O)[C@H](CCC(=O)O)NC1=O)[C@@H](C)O [MP-183] (Ac-[Lys(N3)][βAla]WTF[R8]EYWAQ[Cba][S5]SAA-NH2; staple 6-13)	> 50 µM	19 µM (≈ 38.8 µg/mL)	38.5 µM	5.74 µM	0.229 µM	247 A^2	3.04	–	–
CC(=O)N[C@@H](CCCCN=[N+]=[N-])C(=O)NCCC(=O)N[C@@H](CCCNC(=N)N)C(=O)N[C@H](C(=O)N[C@@H](Cc1ccccc1)C(=O)N[C@]1(C)CCCCCCC=CCCC[C@@](C)(C(=O)N[C@@H](CO)C(=O)N[C@@H](C)C(=O)N[C@@H](C)C(N)=O)NC(=O)[C@H](CC2CCC2)NC(=O)[C@H](CCC(N)=O)NC(=O)[C@H](C)NC(=O)[C@H](Cc2c[nH]c3ccccc23)NC(=O)[C@H](Cc2ccc(O)cc2)NC(=O)[C@H](CCC(=O)O)NC1=O)[C@@H](C)O [MP-552] (Ac-[Lys(N3)][βAla]RTF[R8]EYWAQ[Cba][S5]SAA-NH2; staple 6-13)	> 50 µM	2 µM (≈ 4.03 µg/mL)	39.9 µM	4.32 µM	0.0896 µM	230 A^2	2.81	–	–
CC(=O)N[C@@H](CCCCN=[N+]=[N-])C(=O)NCCC(=O)N[C@@H](CC(C)C)C(=O)N[C@@H](CCC(=O)O)C(=O)N[C@@H](Cc1ccccc1)C(=O)N[C@]1(C)CCCCCCC=CCCC[C@@](C)(C(=O)N[C@@H](CO)C(=O)N[C@@H](C)C(=O)N[C@@H](C)C(N)=O)NC(=O)[C@H](CC2CCC2)NC(=O)[C@H](CCC(N)=O)NC(=O)[C@H](C)NC(=O)[C@H](Cc2c[nH]c3ccccc23)NC(=O)[C@H](Cc2ccc(O)cc2)NC(=O)[C@H](CCC(=O)O)NC1=O [MP-179]	> 50 µM	102 µM (≈ 205 µg/mL)	> 49.8 µM	13.6 µM	0.173 µM	243 A^2	2.5	–	–
CC(=O)N[C@@H](CCCCN=[N+]=[N-])C(=O)NCCC(=O)N[C@@H](CC(C)C)C(=O)N[C@H](C(=O)N[C@@H](Cc1ccccc1)C(=O)N[C@]1(C)CCCCCCC=CCCC[C@@](C)(C(=O)N[C@@H](CO)C(=O)N[C@@H](C)C(=O)N[C@@H](C)C(N)=O)NC(=O)[C@H](CC2CCC2)NC(=O)[C@H](CCC(N)=O)NC(=O)[C@H](Cc2c[nH]c3ccccc23)NC(=O)[C@H](Cc2c[nH]c3ccccc23)NC(=O)[C@H](Cc2ccc(O)cc2)NC(=O)[C@H](CCC(=O)O)NC1=O)[C@@H](C)O [MP-186] (Ac-[Lys(N3)][βAla]LTF[R8]EYWWQ[Cba][S5]SAA-NH2; staple 6-13)	> 50 µM	–	21.5 µM	5.8 µM	0.194 µM	238 A^2	3.26	–	–
